# Experimental data published in patent publication US10596169B2, “Cancer treatment with combination of plinabulin and taxane” (BeyondSpring Inc., priority 2013, dated 2020).
# Legend:
# [1] = system: MV522 human non-small cell lung tumor xenograph model; test: Example 2: MV522 xenograft, NPI-2358 1, 4 or 24 h after docetaxel (TGI/TGD); assay type: in vivo, athymic nu/nu mice; settings: for MDS day +/− SD: endpoint 1.0 cm^3
# Description: In vivo evaluation of plinabulin in combination with docetaxel in the MV522 human non-small cell lung tumor xenograph model in athymic nu/nu mice: schedule of drug administration
# The objective of the example was to evaluate the potential additive or synergistic effects of plinabulin (NPI-2358) in combination with docetaxel by administering NPI-2358 at various time points (1 h, 4 h, or 24 h) after docetaxel in the MV522 model. Significant endpoints for this experiment included mean tumor growth inhibition (TGI) or regression, tumor growth delay (TGD) in large tumor, weight loss, and mortality.
# Female nude mice (Hsd: Athymic Nude-Foxn1^nu) between 5 and 6 weeks of age weighing approximately 20 grams were obtained from Harlan, Inc. (Madison, Wis.). Animals were injected subcutaneously (SC) with approximately 1×10^7 MV522 cells harvested from tissue culture (1:1 matrigel:media). When tumors grew to approximately 100 cubic millimeters (mm^3) in size, animals were pair-matched by tumor size into treatment and control groups. Animals were ear-tagged and followed individually throughout the experiment.
# Initial doses were administered on Day 1 following pair-matching. The experiment was carried out as both a tumor growth inhibition (TGI) and tumor growth delay (TGD) study. For TGI, the endpoint was when the average tumor volume of Group 1 reached 1.2 cm^3. For TGD, the endpoint was reached when each individual animal's tumor volume reached 1.0 cm^3. A 10 mg/ml stock vial of docetaxel was diluted in 0.9% saline on each day of dosing and administered intravenously (IV).
# Same as in Example 1. This arm of the study was ended on Day 80 or 53 at the sponsor's request. Long-term survivors (animals not reaching the tumor volume endpoint by the preset time period (LTS)) were assigned an IDS value of the last study day (Day 80) and included in these calculations.
# For comparison of activity with standard agent(s), gross or net log10 cell-kill values were converted to an arbitrary activity rating below: […]
# [2] = system: stage IIIb/IV non-small cell lung cancer; test: Example 3: clinical study, efficacy (overall survival, response rate), Arm DN vs Arm D; assay type: in vivo, human (NSCLC patients); settings: for OS / Response Rate: Arm DN (30 mg/m^2) vs Arm D
# Description: The investor applied the optimum plinabulin and docetaxel combination treatment schedule derived from MV522 animal studies in NSCLC patients. Patients received therapy on Day 1 and Day 8 in 3-week cycles. Therapy on Day 1 consisted of 75 mg/m^2 docetaxel administered via intravenous infusion (IV) over 1 hour, followed 2 hours later (from the time the docetaxel infusion begins) by 30 mg/m^2 plinabulin administered via intravenous infusion (IV) over 30 minutes. Therapy on Day 8 consisted of 20 mg/m^2 or 30 mg/m^2 plinabulin administered via intravenous infusion (IV) over 30 minutes.
# To compare the overall survival of patients with NSCLC treated with docetaxel to patients treated with docetaxel+plinabulin.
# Secondary: • 1. To compare the response rate, duration of response, 6-month survival, and progression free survival in patients with NSCLC treated with docetaxel to patients with docetaxel+plinabulin; • 2. To compare the safety and adverse events profile of docetaxel to docetaxel+plinabulin.
# This was an open-label study in patients with advanced NSCLC that had progressed after treatment with at least 1 chemotherapy regimen. Patients were randomized to receive either docetaxel plus plinabulin (DN) or docetaxel alone (75 mg/m^2) (D). 2 dosing cohorts were investigated: • 1) 30 mg/m^2 dosing cohort: Approximately 110 patients were to be randomized (1:1) to receive either docetaxel plus plinabulin at 30 mg/m^2 (DN 30 mg/m^2 arm) or docetaxel alone (D arm); • 2) 20 mg/m^2 dosing cohort: Approximately 57 patients were to be randomized (2:1) to receive either docetaxel plus plinabulin at 20 mg/m^2 (DN 20 mg/m^2 arm) or docetaxel (D arm) alone.
# Patients received therapy on Day 1 and Day 8 in 3-week cycles.
# Therapy on Day 1 consisted of 75 mg/m^2 docetaxel administered via intravenous infusion (IV) over 1 hour, followed 2 hours later (from the time the docetaxel infusion began) by placebo (Arm D) or 30 mg/m^2 or 20 mg/m^2 plinabulin (Arm DN) DN administered via intravenous infusion (IV) over 30 minutes. Oral dexamethasone (16 mg) was given the day prior to, the day of and the day following docetaxel infusion (Day 1). Therapy on Day 8 consisted of placebo (Arm D) or 30 mg/m^2 or 20 mg/m^2 plinabulin (Arm DN) administered via intravenous infusion (IV) over 30 minutes.
# Patients with stage IIIb/IV non-small cell lung cancer that has progressed after treatment with at least one chemotherapy regimen.
# Assessment of response to treatment occurred during the rest period of the second cycle (and approximately every 2 cycles thereafter).
# Comparisons were made of efficacy endpoints between Arm D and Arm DN. The primary efficacy endpoint is overall survival. Secondary endpoints include response rate, duration of response, quality of life, neutropenia rate and G-CSF usage.
# The distributions of overall survival and any other time-to-event endpoints were summarized using the Kaplan-Meier method. The log-rank test was used to compare the efficacy endpoints between treatment groups. All statistical tests were carried out using one-sided tests at the 5% level of significance. The primary objective of this trial is to assess the effect of the addition of plinabulin on overall survival.
# [3] = G2: docetaxel 15 mg/kg IV + NPI-2358 vehicle 1 h after
# [4] = G3: docetaxel 15 mg/kg IV + NPI-2358 vehicle 4 h after
# [5] = G4: docetaxel 15 mg/kg IV + NPI-2358 vehicle 24 h after
# [6] = G11: docetaxel 25 mg/kg IV + NPI-2358 vehicle 1 h after
# [7] = G12: docetaxel 25 mg/kg IV + NPI-2358 vehicle 4 h after
# [8] = G13: docetaxel 25 mg/kg IV + NPI-2358 vehicle 24 h after
structure (smiles),measurement,setting,value
"CC(=O)O[C@@]12CO[C@@H]1C[C@H](O)[C@@]1(C)C(=O)[C@H](O)C3=C(C)[C@@H](OC(=O)[C@H](O)[C@@H](NC(=O)OC(C)(C)C)c4ccccc4)C[C@@](O)([C@@H](OC(=O)c4ccccc4)[C@H]21)C3(C)C [Docetaxel, docetaxel]",% TGI,[1]; [3],79%
same,Final tumor volume (Day 24) mean +/− SEM,[1]; [3],337 +/− 29
same,Log10 cell kill,[1]; [3],0.6
same,T-C (tumor growth delay),[1]; [3],14
same,MDS day +/− SD,[1]; [3],38 ± 3 days
same,% TGI,[1]; [4],81%
same,Final tumor volume (Day 24) mean +/− SEM,[1]; [4],313 +/− 23
same,Log10 cell kill,[1]; [4],0.7
same,T-C (tumor growth delay),[1]; [4],18
same,MDS day +/− SD,[1]; [4],42 ± 6 days
same,% TGI,[1]; [5],80%
same,Final tumor volume (Day 24) mean +/− SEM,[1]; [5],325 +/− 41
same,Log10 cell kill,[1]; [5],0.6
same,T-C (tumor growth delay),[1]; [5],16
same,MDS day +/− SD,[1]; [5],40 ± 7 days
same,# of animals with tumor regression (% TR (#)),[1]; [6],7
same,% TGI,[1]; [6],104%
same,% TR,[1]; [6],42%
same,Final tumor volume (Day 24) mean +/− SEM,[1]; [6],69 +/− 10
same,Log10 cell kill,[1]; [6],1.6
same,T-C (tumor growth delay),[1]; [6],39
same,MDS day +/− SD,[1]; [6],63 ± 10 days
same,# of animals with tumor regression (% TR (#)),[1]; [7],7
same,% TGI,[1]; [7],104%
same,% TR,[1]; [7],45%
same,Final tumor volume (Day 24) mean +/− SEM,[1]; [7],65 +/− 9
same,Log10 cell kill,[1]; [7],1.3
same,T-C (tumor growth delay),[1]; [7],32
same,MDS day +/− SD,[1]; [7],56 ± 4 days
same,# of animals with tumor regression (% TR (#)),[1]; [8],7
same,% TGI,[1]; [8],103%
same,% TR,[1]; [8],55%
same,Final tumor volume (Day 24) mean +/− SEM,[1]; [8],72 +/− 14
same,Log10 cell kill,[1]; [8],1.4
same,T-C (tumor growth delay),[1]; [8],35
same,MDS day +/− SD,[1]; [8],59 ± 10 days
same,Overall survival (OS),"[2]; 30 mg/m^2 group, all patients, docetaxel 75 mg/m^2",7.5 M
same,OS,[2]; All Patients,7.5 month
same,Response Rate,[2]; All Patients,14.5%
same,OS,[2]; largest primary tumor >3 cm,7.5 month
same,Response Rate,[2]; largest primary tumor >3 cm,13.9%
same,OS,[2]; largest primary tumor >5 cm,6.7 month
same,Response Rate,[2]; largest primary tumor >5 cm,15%
same,OS,[2]; largest primary tumor >7 cm,5.03 month
same,Response Rate,[2]; largest primary tumor >7 cm,20%
same,OS,[2]; largest primary tumor ≤3 cm,6.5 month
same,Response Rate,[2]; largest primary tumor ≤3 cm,15.8%
same,Overall survival (OS),"[2]; subgroup all tumor <3 cm, plinabulin 30 mg/m^2",6.47 M
same,Overall survival (OS),"[2]; subgroup at least one tumor with diameter greater than 3 cm, plinabulin 30 mg/m^2",7.8 M
